# Source: publication PMC2717426, “The effect of exogenous glucagon-like peptide-1 on the glycaemic response to small intestinal nutrient in the critically ill: a randomised double-blind placebo-controlled cross over study” (Critical Care, 2009)
# Key:
# [1] = Plasma insulin (ELISA) and insulin/glucose ratio during GLP-1 infusion; type: in vivo, critically ill patients; conditions: GLP-1 1.2 pmol/kg/min i.v., mean ± SEM, n = 7
# Source text: Patients were studied on two consecutive days, in which they received intravenous GLP-1 or placebo in a randomised, double-blind fashion. Twelve hours prior to the study, a naso-duodenal feeding catheter was inserted and confirmed via abdominal x-ray. On each study day enteral feeding was ceased at least four hours prior to the commencement of the study. Exogenous insulin (Actrapid, Novo-Nordisk, Copenhagen, Denmark) infusion was ceased at least two hours before the commencement of the study drug. Patient weight was provided by a relative and/or estimated by a dietician. […] The study investigators were blinded to each infusion, which were concealed in a glass bottle covered by black plastic. […]
# Blood glucose was measured at the bedside using a portable glucometer (Medisense Optimum, Abbott, Melbourne, Australia). […] Plasma insulin was measured by ELISA (Diagnostics Systems Laboratories, Webster, Texas, USA) with an inter-assay coefficient of variation (CV) of 6.2%.
# Data are presented as mean ± standard error of the mean. Area under the curve (AUC) was calculated using the trapezoidal rule. […] The ratios of insulin/glucose were calculated, as described previously. […] The difference between intervention and placebo was assessed using paired samples; Student's paired t-test and repeated measures analysis of variance. Data were evaluated for potential carry over effect. […]
# [2] = Tolerability of the study infusion; type: in vivo, critically ill patients; conditions: GLP-1 1.2 pmol/kg/min i.v. over 270 minutes; all 7 patients
# Source text: (§1) Patients were studied on two consecutive days, in which they received intravenous GLP-1 or placebo in a randomised, double-blind fashion. Twelve hours prior to the study, a naso-duodenal feeding catheter was inserted and confirmed via abdominal x-ray. On each study day enteral feeding was ceased at least four hours prior to the commencement of the study. Exogenous insulin (Actrapid, Novo-Nordisk, Copenhagen, Denmark) infusion was ceased at least two hours before the commencement of the study drug. Patient weight was provided by a relative and/or estimated by a dietician. […] The study investigators were blinded to each infusion, which were concealed in a glass bottle covered by black plastic. […] At t = 30 minute Ensure® (Abbott, Melbourne, Australia), a mixed nutrient liquid (64% carbohydrate, 1 kcal/ml), was delivered continuously into the small intestine at a rate of 1.5 ml/min for four hours (i.e. t = 30 to 270 min).
# [3] = GLP-1 infusion at 1.2 pmol/kg/min; postoperative patients with type 2 diabetes; cited from earlier work
# Source text: Hyperglycaemia in critically ill patients, not previously known to have diabetes, is associated with poorer outcomes than in patients with pre-existing diabetes. […] Insulin infusions were ceased two hours before the commencement of the study to ensure clearance of exogenous insulin. Given t ...
# [4] = Plasma glucagon concentration (radioimmunoassay) during GLP-1 infusion; type: in vivo, critically ill patients; conditions: GLP-1 1.2 pmol/kg/min i.v.; trapezoidal rule; mean ± SEM, n = 7
# [5] = Total plasma GLP-1 concentration (radioimmunoassay) during GLP-1 infusion; type: in vivo, critically ill patients
# Source text: as §1
# (§2) Blood glucose was measured at the bedside using a portable glucometer (Medisense Optimum, Abbott, Melbourne, Australia). Blood was collected, separated by centrifugation and the resulting plasma was stored at -70° until assayed for hormone concentrations. Plasma insulin was measured by ELISA (Diagnostics Systems Laboratories, Webster, Texas, USA) with an inter-assay coefficient of variation (CV) of 6.2%.
# (§3) Data are presented as mean ± standard error of the mean. Area under the curve (AUC) was calculated using the trapezoidal rule. […] The ratios of insulin/glucose were calculated, as described previously. Statistical analyses were performed using SPSS (Version 15.0, Chicago, Illinois, USA). Distribution and sensitivity analysis, using nonparametric analyses, allowed parametric testing of data. The difference between intervention and placebo was assessed using paired samples; Student's paired t-test and repeated measures analysis of variance. Data were evaluated for potential carry over effect. The null hypothesis was rejected at the 0.05 significance.
# [6] = Blood glucose response to small intestinal nutrient infusion during intravenous GLP-1 infusion (bedside glucometer); type: in vivo, critically ill patients
# Protocol: Seven critically ill adult patients (four males, three females, age range 28 to 76 years), predicted to remain mechanically ventilated for more than 48 hours, were studied. Exclusion criteria included pregnancy, pre-existing diabetes, contraindication to enteral feeding or post-pyloric catheter insertion, and previous surgery on the oesophagus, stomach or duodenum.
# as §1, §2, §3
# [7] = GLP-1 1.2 pmol/kg/min i.v., total GLP-1, radioimmunoassay, mean ± SEM, n = 7
# [8] = GLP-1 1.2 pmol/kg/min i.v. t = 0-270 min, intra-duodenal Ensure 1.5 kcal/min t = 30-270 min, mean ± SEM, n = 7
substance,measurement,setting,value
GLP-1-(7–36) amide,Plasma insulin AUC0–270 min,"[1]; entire study period, trapezoidal rule","16,203 ± 5193 mU/l min"
same,"Plasma insulin, t = 270 min","[1]; intra-duodenal nutrient, ELISA",79 ± 21 mU/l
same,Tolerability of the study,[2],well tolerated
same,Effect on fasting glycaemia,[3],achieved fasting normoglycaemia
same,Tolerability,[3],well tolerated
same,Plasma glucagon AUC0–270 minutes,[4],"22,786 ± 6040 pmol/l min"
same,Plasma GLP-1 AUC0–270 min,"[5]; GLP-1 1.2 pmol/kg/min i.v. for 270 min, trapezoidal rule, mean ± SEM, n = 7","31,659 ± 4203 pmol/l min"
same,Time after which steady state plasma GLP-1 concentrations were achieved,[5]; GLP-1 1.2 pmol/kg/min i.v. infusion,30 min
same,"Plasma GLP-1 concentration, t = 30 min",[5]; [7],124 ± 15 pmol/L
same,"Plasma GLP-1 concentration, t = 90 min",[5]; [7],131 ± 13 pmol/L
same,"Effect on blood glucose prior to nutrient infusion, t = 30 min","[6]; GLP-1 1.2 pmol/kg/min i.v. from t = 0, before start of small intestinal nutrient, vs placebo",no effect
same,"Blood glucose concentration, t = 180 min",[6]; [8],9.3 ± 0.6 mmol/L
same,Peak blood glucose,[6]; [8],10.1 ± 0.7 mmol/L
same,"Overall glycaemic response, blood glucose AUC30–270 min","[6]; GLP-1 1.2 pmol/kg/min i.v., intra-duodenal Ensure 1.5 kcal/min t = 30-270 min, trapezoidal rule, mean ± SEM, n = 7",2077 ± 144 mmol·min/L
same,"Baseline blood glucose concentration, t = 0 min","[6]; GLP-1 study day, prior to infusion, arterial blood, glucometer, mean ± SEM, n = 7",7.5 ± 0.4 mmol/L
